US12427134B2, “Methods of reducing the risk of cardiovascular events in a subject with atrial fibrillation and/or atrial flutter” (priority 2019, dated 2025)

Tested on: hypertriglyceridemic patients with cardiovascular disease or at high risk for cardiovascular disease
Experiment: REDUCE-IT: treatment-emergent adverse events and serious adverse events (safety population)
Method: Specification of Variables and Procedures: Safety assessments included adverse events, clinical laboratory measurements (chemistry, hematology), 12-lead ECGs, vital signs (systolic and diastolic blood pressure, heart rate, respiratory rate, and body temperature), weight, waist circumference, and physical examinations as per Study Procedures in Table 1. […] All laboratory test results were evaluated by the investigator as to their clinical significance. Any observations at physical examinations or laboratory values considered by the investigator to be clinically significant were considered an adverse event.
An adverse event can therefore be any unfavorable and/or unintended sign (including an abnormal laboratory finding), symptom, or disease temporally associated with the use of an investigational medication product, whether or not related to the investigational medication product. All adverse events, including observed or volunteered problems, complaints, or symptoms, were recorded on the appropriate CRF. Each adverse event was evaluated for duration, intensity, and causal relationship with the study medication or other factors.
Adverse events, which included clinical laboratory test variables, were monitored from the time of informed consent until study participation was complete. Patients were instructed to report any adverse event that they experienced to the investigator. Beginning with Visit 2, investigators assessed for adverse events at each visit and recorded the event on the appropriate adverse event CRF.
Causality Assessment: The relationship of an adverse event to the administration of the study drug was assessed according to the following definitions: • No (unrelated, not related, no relation)—The time course between the administration of study drug and the occurrence or worsening of the adverse event rules out a causal relationship and another cause (concomitant drugs, therapies, complications, etc.) is suspected. • Yes (related, probably related, possibly related)—The time course between the administration of study drug and the occurrence or worsening of the adverse event is consistent with a causal relationship and no other cause (concomitant drugs, therapies, complications, etc.) can be identified.
Serious Adverse Events: A serious adverse event (SAE) is defined as an adverse event that meets any of the following criteria: • Results in death; • Is life-threatening—The term “life-threatening” in the definition of “serious” refers to an event in which the patient was at risk of death at the time of the event. […] Important medical events that may not result in death, be life threatening, or require hospitalization were considered an SAE when, based upon appropriate medical judgment, they may have jeopardized the patient and may have required medical or surgical intervention to prevent one of the outcomes listed above.
Analysis of Safety: All analyses of safety were conducted on the safety population, which was defined as all randomized patients. The safety assessment was based on the frequency of adverse events, physical exams, vital signs and safety laboratory tests. AEs with new onset during the study between the initiation of study drug and 30 days after the last dose of study drug for each patient was considered treatment-emergent (TEAEs). This included any AE with onset prior to initiation of study drug and increased severity after the treatment initiation.
This included overall incidence rates (regardless of severity and relationship to study drug), and incidence rates for moderate or severe adverse events. A summary of SAEs and adverse events leading to early discontinuation (for ≥30 days) were presented through data listings. Patients who restarted study drug were included in the summary of AEs leading to discontinuation.

## CC/C=C\C/C=C\C/C=C\C/C=C\C/C=C\CCCC(=O)OCC [AMR101, eicosapentaenoic acid ethyl ester]
Region Westernized (N = 2906)
  TEAE: Respiratory, thoracic, and mediastinal disorders, %: (30.9) %
Safety population
  Diarrhea leading to study drug withdrawal, patients: 1.1%
  Nausea leading to study drug withdrawal, patients: 0.6%
  Patients with SAE leading to study drug withdrawal: 2.2%
  Patients with TEAE leading to study drug withdrawal: 7.9%
  Patients with at least one SAE: 30.6%
  Patients with at least one TEAE: 81.8%
  Patients with serious TEAE leading to death: 2.3%
  SAE acute kidney injury, patients: 1.1
  SAE angina pectoris, patients: 1.2%
  SAE chest pain, patients: 1.6%
  SAE class GI disorders, patients: 4.7%
  SAE class cardiac disorders, patients: 4.7%
  SAE class musculoskeletal and connective tissue disorders, patients: 4.6%
  SAE class neoplasms benign, malignant, and unspecified, patients: 5.4%
  SAE non-cardiac chest pain, patients: 1.2%
  SAE osteoarthritis, patients: 2.0%
  Serious TEAE: 1252 (30.6%) n (%)
  Serious TEAE Leading to Death: 94 (2.3%) n (%)
  Serious TEAE Leading to Withdrawal of Study Drug: 88 (2.2%) n (%)
  Serious TEAE: Pneumonia: 105 (2.6%) n (%)
  Serious adverse event pneumonia, patients: 2.6%
  Serious anemia, patients: 0.5%
  Severe TEAE acute kidney injury, patients: 0.7%
  Severe TEAE chest pain, patients: 0.7%
  Severe TEAE osteoarthritis, patients: 0.8%
  Severe TEAE pneumonia, patients: 1.5%
  Severe TEAE, patients with at least one: 19.7%
  Study drug-related SAE, patients with at least one: 0.2%
  Study drug-related TEAE class GI disorders, patients: 7.4%
  Study drug-related TEAE diarrhea, patients: 2.7%
  Study drug-related TEAE leading to study drug withdrawal, patients: 3.4%
  Study drug-related TEAE, patients with at least one: 12.6%
  Study drug-related diarrhea leading to study drug withdrawal, patients: 1.0%
  TEAE Leading to Withdrawal of Study Drug: 321 (7.9%) n (%)
  TEAE anemia, patients: 4.7%
  TEAE atrial fibrillation, patients: 5.3%
  TEAE class GI disorders leading to study drug withdrawal, patients: 3.6%
  TEAE class general disorders and administration site conditions, patients: 25.2%
  TEAE class musculoskeletal and connective tissue disorders, patients: 35.9%
  TEAE class nervous system disorders, patients: 24.6%
  TEAE constipation, patients: 5.4%
  TEAE diarrhea, patients: 9%
  TEAE gastrointestinal disorders, patients: 33.0%
  TEAE of special interest: abnormal glucose control, patients: 15.2%
  TEAE of special interest: hepatic disorders, patients: 5.4%
  TEAE peripheral edema, patients: 6.5%
  TEAE: Anemia: 191 (4.7%) n (%)
  TEAE: Angina pectoris: 200 (4.9%) n (%)
  TEAE: Arthralgia: 313 (7.7%) n (%)
  TEAE: Atrial fibrillation: 215 (5.3%) n (%)
  TEAE: Back pain: 335 (8.2%) n (%)
  TEAE: Bronchitis: 306 (7.5%) n (%)
  TEAE: Cataract: 233 (5.7%) n (%)
  TEAE: Chest pain: 273 (6.7%) n (%)
  TEAE: Constipation: 221 (5.4%) n (%)
  TEAE: Cough: 241 (5.9%) n (%)
  TEAE: Diarrhea: 367 (9.0%) n (%)
  TEAE: Dizziness: 235 (5.7%) n (%)
  TEAE: Dyspnea: 254 (6.2%) n (%)
  TEAE: Fatigue: 228 (5.6%) n (%)
  TEAE: Gastroesophageal Reflux Disease: 124 (3.0%) n (%)
  TEAE: Gastrointestinal disorders: 1350 (33.0%) n (%)
  TEAE: Hypertension: 320 (7.8%) n (%)
  TEAE: Influenza: 263 (6.4%) n (%)
  TEAE: Nasopharyngitis: 314 (7.7%) n (%)
  TEAE: Nausea: 190 (4.6%) n (%)
  TEAE: Osteoarthritis: 241 (5.9%) n (%)
  TEAE: Pain in extremity: 235 (5.7%) n (%)
  TEAE: Peripheral edema: 267 (6.5%) n (%)
  TEAE: Pneumonia: 263 (6.4%) n (%)
  TEAE: Upper respiratory tract infection: 312 (7.6%) n (%)
  TEAE: Urinary tract infection: 253 (6.2%) n (%)
Safety population N = 4089, P-value 0.3180
  TEAE of special interest: Hepatic disorders, %: (5.4) %
Safety population N = 4089, P-value 0.8059
  TEAE of special interest: Abnormal glucose control, %: (15.2) %
Safety population, N = 4089
  CEC-adjudicated CV deaths (excluding deaths with undetermined cause), %: (3.4) %
  CEC-adjudicated Deaths with undetermined cause, %: (0.9) %
  CEC-adjudicated Non-CV deaths, %: (2.4) %
  CEC-adjudicated deaths: Total mortality, %: (6.7) %
  Patients with at least 1 TEAE, %: (81.8) %
  Patients with at least 1 serious TEAE, % patients: (30.6) %
  Patients with at least 1 serious TEAE, n patients: 1252
  Patients with at least 1 severe TEAE, %: (19.7) %
  Patients with at least 1 study drug-related TEAE leading to study drug withdrawal, % patients: (3.4) %
  Patients with at least 1 study drug-related TEAE leading to study drug withdrawal, n patients: 139
  Patients with at least 1 study drug-related TEAE, %: (12.6) %
  Serious TEAE Leading to Death, %: (2.3) %
  Serious TEAE Leading to Withdrawal of Study Drug, %: (2.2) %
  Serious TEAE, %: (30.6) %
  Serious adverse event - Acute kidney injury, % patients: (1.1) %
  Serious adverse event - Acute kidney injury, n patients: 47
  Serious adverse event - Acute respiratory failure, % patients: (0.5) %
  Serious adverse event - Acute respiratory failure, n patients: 19
  Serious adverse event - Anemia, % patients: (0.5) %
